Consider nine molecules from patent US8372890B2, “Functional food containing sodium tricaffeoylaldarate” (Zenyaku Kogyo Kabushikikaisha, priority 2006, dated 2013).

pEC50, pIC50: −log10 of the molar value.

Experiment [1] deals with Lipid Peroxidation (brain homogenate auto-oxidation). Nature of the experiment: Brain homogenate auto-oxidation test (lipid peroxide production inhibition, thiobarbituric acid method). Type of experiment: biochemical. To be noted: for pIC50: value in parentheses, read-out: Inhibitory Activities on Lipid Peroxidation IC50. An excerpt:
[formula] Moreover, f: Purity of reference standard (%)/100 6) Brain Homogenate Auto-oxidation Test
Determined via a thiobarbituric acid method that was based on the method of Ohkawa, et al. (Reference Document 2)

Experiment [2] in a line: 1,1-Diphenyl-2-picrylhydrazyl (DPPH) radical scavenging test. To be noted: for pEC50: value in parentheses, read-out: DPPH Radical Scavenging Activities EC50. An excerpt:
7) 1,1-Diphenyl-2-picrylhydrazyl (DPPH) Radical Scavenging Test
Determined based on the method of Blois, et al. (Reference Document 3)
(In general: Loss of DPPH colour is used to gauge radical scavenging.)

Experiment [3] addresses sucrase (Homo sapiens, UniProt P14410). The experiment can be described thus: Glycosidase inhibitory activity test, sucrase. It counts as biochemical. The source says:
(§1) 8) Glycosidase Inhibitory Activity Test
(§2) Determined via a method whereby α-amylase, maltase, and sucrase inhibitory activities were all disclosed in the abovementioned report (Non-Patent Document 1).

Experiment [4] concerns the target α-amylase. The experiment can be described thus: Glycosidase inhibitory activity test, amylase. It counts as biochemical.
Text: as §1, §2

In experiment [5] the target is maltase. The experiment can be described thus: Glycosidase inhibitory activity test, maltase. Type of experiment: biochemical.
Text: as §1, §2

In experiment [6] the test system is blood glucose level after maltose-loading. The experiment can be described thus: Hyperglycemic inhibitory action after maltose-loading in rat. It counts as in vivo, SD (IGS) rat. The settings on record: for ΔAUC of blood glucose / ΔCmax of blood glucose: maltose 1 g/kg gavage. An excerpt:
• 1) Test Substance: With regard to TCAA, Yacon hot water extract was passed through an HP-20 column chromatograph, then eluted with water, and finally eluted with 50% methanol to obtain a polyphenol fraction. This fraction was separated by being passed through a Sephadex LH-20, and eluted with 40% methanol/water, so that the total amount of TCAA contained therein was recovered during confirmation of TCAA with HPLC. Then, the rough TCAA fraction was passed through a HW-40 column chromatograph, separated with 40% methanol/water during confirmation of TCAA with HPLC in a similar manner, and components other than TCAA were removed. […] Moreover, the maltose employed was purchased from Wako Pure Chemical Industries, Ltd. • 2) Animals: One group of five SD (IGS) 7 week old male rats was employed. 2. Experimental Method • 1) Configuration of the Treatment Group • (1) Control Group (Maltose Only) • (2) Maltose+TCAA (600 mg/kg×2) • (3) Maltose+TCAA (300 mg/kg×2) • (4) Maltose+TCAA (150 mg/kg×2) • 2) Preparation of Test Substance
Maltose was weighed to an amount of 1.5 g, dissolved in 15 ml of distilled water, and administered by gavage at a dosage of 1 g/10 ml/kg. Then TCAA was administered in two doses, a first dosage in which it was administered in a maltose solution, and then a second dosage in which it was dissolved in distilled water, with both dosages being at ratios of 150 mg/10 ml, 300 mg/10 ml, and 600 mg/10 ml, respectively, and administration thereof by gavage at a dosage of 10 ml/kg.
After blood samples were collected from rats that fasted for 17 hours prior to administration of the test substance (0 time), the test substance was administered. Fifteen minutes later the second dosage was administered, with blood samples being taken soon thereafter (specifically, 15 minutes later), 30 minutes thereafter, 45 minutes thereafter, 60 minutes thereafter, 90 minutes thereafter, and 120 minutes thereafter, respectively, and then blood glucose levels being measured with a Glucocard (Aventis Pharma, Limited).
When measuring blood glucose levels at the times that each of the samples were collected, the change in blood glucose (A) was calculated by subtracting the blood glucose level prior to the administration (0 time) from the blood glucose levels after the administration of the test substance, and determining the maximum serum concentration (ΔCMAX) and area under the blood glucose curve (ΔAUC).
The blood glucose values obtained by the present experiment were averaged, the standard error of the mean was calculated, and a two-group comparison was made with the control group. The statistical test method was via the Bartlett method, with the variance of the measured values being statistically verified within a 95% confidence limit, and the Student's t-test only being conducted in cases of equal variance, to determine that p<0.05 was a statistically significant change.

The mark [7] stands for this setting: comparative molar concentrations.
Where [8] appears, read: TCAA 150 mg/kg × 2, mean ± SE, n = 5.
[9] abbreviates: TCAA 300 mg/kg × 2, mean ± SE, n = 5.

Chain of sucrase (P14410 whole entry, species assumed): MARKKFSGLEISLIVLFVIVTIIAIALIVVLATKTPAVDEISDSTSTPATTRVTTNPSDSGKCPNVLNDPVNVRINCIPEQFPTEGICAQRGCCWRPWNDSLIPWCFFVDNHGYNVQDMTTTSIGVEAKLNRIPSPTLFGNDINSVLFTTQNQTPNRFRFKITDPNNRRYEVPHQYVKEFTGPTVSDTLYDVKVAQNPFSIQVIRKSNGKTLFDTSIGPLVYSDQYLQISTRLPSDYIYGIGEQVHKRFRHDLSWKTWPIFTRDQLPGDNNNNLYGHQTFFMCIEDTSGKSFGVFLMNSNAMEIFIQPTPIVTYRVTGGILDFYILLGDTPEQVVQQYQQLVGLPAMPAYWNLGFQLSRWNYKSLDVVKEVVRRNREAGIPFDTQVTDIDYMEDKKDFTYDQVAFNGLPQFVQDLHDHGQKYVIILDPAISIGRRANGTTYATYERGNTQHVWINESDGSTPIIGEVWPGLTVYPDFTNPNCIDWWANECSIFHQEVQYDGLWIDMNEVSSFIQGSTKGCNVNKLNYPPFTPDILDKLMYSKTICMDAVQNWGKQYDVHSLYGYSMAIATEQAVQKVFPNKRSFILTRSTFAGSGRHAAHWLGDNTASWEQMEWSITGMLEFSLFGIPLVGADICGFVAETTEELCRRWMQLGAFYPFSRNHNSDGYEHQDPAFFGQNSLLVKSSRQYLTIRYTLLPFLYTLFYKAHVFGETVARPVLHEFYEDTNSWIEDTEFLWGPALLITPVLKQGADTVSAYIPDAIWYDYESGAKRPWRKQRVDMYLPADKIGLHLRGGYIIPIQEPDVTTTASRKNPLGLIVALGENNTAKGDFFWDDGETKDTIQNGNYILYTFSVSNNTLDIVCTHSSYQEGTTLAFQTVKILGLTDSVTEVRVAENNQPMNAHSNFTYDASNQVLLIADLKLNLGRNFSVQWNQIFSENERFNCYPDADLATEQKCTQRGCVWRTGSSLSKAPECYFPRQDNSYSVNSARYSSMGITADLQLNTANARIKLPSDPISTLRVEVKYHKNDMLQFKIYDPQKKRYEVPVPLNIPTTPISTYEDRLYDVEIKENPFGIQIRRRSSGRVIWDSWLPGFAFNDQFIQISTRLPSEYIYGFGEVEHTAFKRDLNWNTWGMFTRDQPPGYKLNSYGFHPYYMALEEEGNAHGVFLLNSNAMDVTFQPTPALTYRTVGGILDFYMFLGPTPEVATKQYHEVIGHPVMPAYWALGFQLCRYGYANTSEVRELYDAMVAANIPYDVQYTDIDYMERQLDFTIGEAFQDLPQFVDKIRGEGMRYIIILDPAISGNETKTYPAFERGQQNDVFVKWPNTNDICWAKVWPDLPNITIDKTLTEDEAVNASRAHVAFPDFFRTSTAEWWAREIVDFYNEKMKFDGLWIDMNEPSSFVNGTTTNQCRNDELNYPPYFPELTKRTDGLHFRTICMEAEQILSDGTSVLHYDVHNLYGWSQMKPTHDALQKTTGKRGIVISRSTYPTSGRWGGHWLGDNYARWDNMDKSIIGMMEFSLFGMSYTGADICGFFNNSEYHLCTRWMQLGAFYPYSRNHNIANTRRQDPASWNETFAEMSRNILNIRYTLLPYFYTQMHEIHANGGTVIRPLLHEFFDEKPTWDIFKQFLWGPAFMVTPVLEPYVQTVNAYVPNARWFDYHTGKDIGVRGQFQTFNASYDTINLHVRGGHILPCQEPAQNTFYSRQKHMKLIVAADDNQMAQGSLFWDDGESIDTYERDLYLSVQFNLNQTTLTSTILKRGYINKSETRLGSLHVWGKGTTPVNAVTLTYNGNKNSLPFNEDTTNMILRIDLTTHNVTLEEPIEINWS

The pIC50 is the negative decadic logarithm of the IC50, by convention in mol/L. One may read the pEC50 as the EC50 on a negative log10 scale, so that one unit is a factor of ten. For “2,3,5-tricaffeoylaltraric acid, or 2,4,5-tricaffeoylaltraric acid [TCAA]”, in experiment [1], the “Inhibitory Activities on Lipid Peroxidation IC50” value (shortened to “Inhibitory Activities”) worked out at 0.49 µg/mL. Besides, in experiment [1] (setting [7]), the “lipid peroxide production inhibitory activity, times greater than that of (±)-catechin” value amounted to 68 times. Also, in experiment [1] (setting [7]), the “lipid peroxide production inhibitory activity, times greater than that of ellagic acid” value is 2.5 times. The pIC50 in experiment [1] was 6.15. The “DPPH Radical Scavenging Activities EC50” value in experiment [2] was 0.69 µg/mL. For the same molecule, in experiment [2], the pEC50 is 6.00. Besides, the “sucrase inhibitory activity IC50” value in experiment [3] was above 1000 µg/mL. Also, the “amylase inhibitory activity IC50” value in experiment [4] came out at 420 µg/mL. The “maltase inhibitory activity IC50” value in experiment [5] (TCAA isolated in Example 1) was determined as 49 µg/mL; in experiment [5] (TCAA test substance of Example 4, purity 91%) it was 61 µg/mL. For the same molecule, the “maltase inhibitory activity compared to an acarbose control” value in experiment [5] (fraction of acarbose activity) is given as 1/19. Moreover, in experiment [6] (600 mg/kg TCAA group), the “blood glucose 90 minute values compared to control group” value was “obvious increase”. In addition, the “increase in blood glucose via maltose-loading at 15 minutes” value in experiment [6] (each TCAA dosage group (150, 300, 600 mg/kg × 2) vs control, p<0.01) is recorded as “significantly inhibited”. Also, the “ΔAUC of blood glucose” value in experiment [6] (setting [8]) was found to be 5834 ± 484 mg·min/dL; in experiment [6] (setting [9]) it was 5456 ± 249 mg·min/dL; in experiment [6] (TCAA 600 mg/kg × 2, mean ± SE, n = 5), 5495 ± 300 mg·min/dL. In addition, the “ΔCmax of blood glucose” value came to 86 ± 9 mg/dL in experiment [6] (setting [8]); 84 ± 5 mg/dL in experiment [6] (setting [9]); 73 ± 3 mg/dL in experiment [6] (TCAA 600 mg/kg × 2, mean ± SE, n = 5, p < 0.05 vs control).

`O=C(/C=C/c1ccc(O)c(O)c1)O[C@@H]1[C@H](O)C[C@@](O)(C(=O)O)C[C@H]1OC(=O)/C=C/c1ccc(O)c(O)c1` [3,4-DCQA, 3,4-dicaffeoylquinic acid]: in experiment [1], the “Inhibitory Activities” value was found to be 1.48 µg/mL and the pIC50 was 5.54. In experiment [2], the “DPPH Radical Scavenging Activities EC50” value was determined as 0.91 µg/mL and the pEC50 is 5.75.

For the molecule `O=C(/C=C/c1ccc(O)c(O)c1)O[C@@H]1C[C@](O)(C(=O)O)C[C@@H](OC(=O)/C=C/c2ccc(O)c(O)c2)[C@H]1O` [3,5-DCQA], in experiment [1], the “Inhibitory Activities” value came to 2.18 µg/mL and the pIC50 is 5.37. Also, in experiment [2], the “DPPH Radical Scavenging Activities EC50” value turned out to be 0.87 µg/mL and the pEC50 is 5.77.

Consider `O=C(/C=C/c1ccc(O)c(O)c1)O[C@H]1[C@H](O)C[C@](O)(C(=O)O)C[C@H]1OC(=O)/C=C/c1ccc(O)c(O)c1` [4,5-DCQA], for which, in experiment [1], the “Inhibitory Activities” value was 3.38 µg/mL and the pIC50 was 5.18. Further, in experiment [2], the “DPPH Radical Scavenging Activities EC50” value was 0.89 µg/mL and the pEC50 was 5.76.

On to `O=C(O)/C=C/c1ccc(O)c(O)c1` [caffeic acid], for which, in experiment [1], the “Inhibitory Activities” value worked out at 9.97 µg/mL and the pIC50 was 4.26. Besides, in experiment [2], the “DPPH Radical Scavenging Activities EC50” value was 4.39 µg/mL and the pEC50 was 4.61.

With `O=C(/C=C/c1ccc(O)c(O)c1)O[C@@H]1C[C@](O)(C(=O)O)C[C@@H](O)[C@H]1O` [chlorogenic acid], in experiment [1], the “Inhibitory Activities” value was 13.21 µg/mL and the pIC50 was 4.43.

Turning to `O=c1oc2c(O)c(O)cc3c(=O)oc4c(O)c(O)cc1c4c23` [ellagic acid], in experiment [1], the “Inhibitory Activities” value turned out to be 0.56 µg/mL and the pIC50 was 5.73. In experiment [2], the “DPPH Radical Scavenging Activities EC50” value came to 0.51 µg/mL and the pEC50 was 5.77.

With `Cc1c(C)c2c(c(C)c1O)CC[C@@](C)(CCC[C@H](C)CCC[C@H](C)CCCC(C)C)O2` [α-tocopherol], in experiment [1], the “Inhibitory Activities” value is 71.24 µg/mL and the pIC50 is 3.78. In addition, in experiment [2], the “DPPH Radical Scavenging Activities EC50” value was determined as 5.65 µg/mL and the pEC50 was 4.88.

(±)-catechin: in experiment [1], the “Inhibitory Activities” value is 13.69 µg/mL and the pIC50 was 4.33. Further, in experiment [2], the “DPPH Radical Scavenging Activities EC50” value was 1.56 µg/mL and the pEC50 is 5.27.
